Measured values from PubChem BioAssay (NCI).
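All cell lines were grown in 96-well plates and treated with compound for 48 hours. The concentration for full growth arrest is given as TGI.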

Columns and labels:
Assay in all cases: inhibition of tumour cell growth, NCI panel, 48 h
ACHN renal = system: ACHN renal
NCI-H522 lung = system: NCI-H522 lung
A498 renal = system: A498 renal
TK-10 renal = system: TK-10 renal
K-562 leukemia = system: K-562 leukemia
BT-549 breast = system: BT-549 breast
LOX IMVI melanoma = system: LOX IMVI melanoma
SNB-75 CNS = system: SNB-75 CNS
MALME-3M melanoma = system: MALME-3M melanoma
MDA-N = system: MDA-N
M14 melanoma = system: M14 melanoma
MDA-MB-435 = system: MDA-MB-435
HOP-62 NSCLC = system: HOP-62 NSCLC
DU-145 prostate = system: DU-145 prostate
IGROV1 ovarian = system: IGROV1 ovarian
NCI/ADR-RES ovarian = system: NCI/ADR-RES ovarian
NCI-H23 lung = system: NCI-H23 lung
OVCAR-5 ovarian = system: OVCAR-5 ovarian
SNB-19 CNS = system: SNB-19 CNS
PC-3 prostate = system: PC-3 prostate
MOLT-4 leukemia = system: MOLT-4 leukemia
SK-MEL-2 melanoma = system: SK-MEL-2 melanoma
HOP-92 NSCLC = system: HOP-92 NSCLC
NCI-H226 lung = system: NCI-H226 lung
OVCAR-3 ovarian = system: OVCAR-3 ovarian
A549 NSCLC = system: A549 NSCLC
MDA-MB-231 breast = system: MDA-MB-231 breast
786-0 renal = system: 786-0 renal
U251 CNS = system: U251 CNS
CAKI-1 renal = system: CAKI-1 renal
SF-268 CNS = system: SF-268 CNS
HL-60(TB) leukemia = system: HL-60(TB) leukemia
HCT-15 colon = system: HCT-15 colon
OVCAR-8 ovarian = system: OVCAR-8 ovarian
RPMI-8226 leukemia = system: RPMI-8226 leukemia
SN12C renal = system: SN12C renal
SK-MEL-5 melanoma = system: SK-MEL-5 melanoma
NCI-H460 lung = system: NCI-H460 lung
T-47D breast = system: T-47D breast
RXF 393 renal = system: RXF 393 renal
EKVX NSCLC = system: EKVX NSCLC
SW-620 colon = system: SW-620 colon
SF-539 CNS = system: SF-539 CNS
SK-MEL-28 melanoma = system: SK-MEL-28 melanoma
HCC-2998 colon = system: HCC-2998 colon
COLO 205 colon = system: COLO 205 colon
MCF7 breast = system: MCF7 breast
OVCAR-4 ovarian = system: OVCAR-4 ovarian
SK-OV-3 ovarian = system: SK-OV-3 ovarian
KM12 colon = system: KM12 colon
UACC-257 melanoma = system: UACC-257 melanoma
UACC-62 melanoma = system: UACC-62 melanoma
SF-295 CNS = system: SF-295 CNS
HCT-116 colon = system: HCT-116 colon
HT29 colon = system: HT29 colon
CCRF-CEM leukemia = system: CCRF-CEM leukemia
HS 578T breast = system: HS 578T breast
UO-31 renal = system: UO-31 renal
SR leukemia = system: SR leukemia

Measured: TGI

CC(C)Cn1cnnc1NS(=O)(=O)c1cc(C(=O)NN)c(Cl)cc1S
not listed: UO-31 renal | SR leukemia
> 10 µM: all other assays above

COc1cc(O)c2c(=O)cc(C3(OC(C)=O)C=CC(OC4OC(CO)C(O)C(O)C4O)C=C3)oc2c1 (stereo unspecified)
not listed: SF-268 CNS | HS 578T breast
> 100 µM: all other assays above

COc1ccc(-c2c(C(=O)Nc3ccccc3)c(-c3ccccc3)n(C3OC(CO)C(O)C(O)C3O)c(=S)c2C#N)cc1 (stereo unspecified)
not listed: TK-10 renal | SNB-75 CNS | SK-MEL-2 melanoma | MDA-MB-231 breast | T-47D breast | SF-539 CNS | SK-OV-3 ovarian
> 100 µM: all other assays above

NC(=S)NS(=O)(=O)c1ccc(F)cc1
not listed: A498 renal | MCF7 breast | UO-31 renal | SR leukemia
> 100 µM: all other assays above
